The results in this text go back to US9970037B2, “Methods and materials for making simvastatin and related compounds” (The Regents of the University of California, priority 2006, dated 2018).

A word on the Km: it is the substrate concentration at which the rate is half of its maximum. Broadly, the kcat is the maximal rate divided by the concentration of active sites.

One data set has as its system E. coli BL21(DE3)/pAW31. Nature of the data set: Whole cell biocatalysis with E. coli overexpressing LovD. It is filed as cell-based, Escherichia coli. As for the experimental part:
The BL21(DE3)/pAW31 overexpression strain was grown in a shake flask (200 mL) to an OD600 of 1.0, at which time 1 mM IPTG, 0.8 mM monacolin J and 4 mM of either benzoyl-SNAC or benzoyl-SMTG were added to the culture. Expression of LovD and bioconversion was performed at 18° C. The culture was extracted and analyzed for the formation of 8-benzoyl-monacolin J. When supplemented with benzoyl-SNAC, 84% conversion of monacolin J was detected within 20 hours post-induction. The product was lactonized and purified by a single silica-gel chromatography step. The NMR spectra confirmed the regioselective benzoylation of the C8 hydroxyl group as the diagnostic H8 multiplet is shifted downfield to δ 5.61.
Fermentation conditions: 500 mL culture with LB media with 30 mg/L kanamycin. At OD600 of 1.0, cells were concentrated to a final OD600 of 5.0 and induced with 1 mM IPTG. Substrates monacolin J and α-dimethylbutyryl-SNAC were added to a final concentration of 1 mM and 4 mM. At different time points, culture samples were collected, centrifuged, filtered and injected on to HPLC (20 μL). Extraction conditions: When maximum conversion was reached, the broth was acidified to pH of 2.0, extracted with ethyl acetate, dried and redissolved in toluene.
(§1) Whole-cell catalytic synthesis of simvastatin acid from MJ acid and DMB-S-MMP were performed as described (see, e.g., Xie et al., (2007) Appl Environ Microbiol 73: 2054-2060). The E. coli BL21(DE3)/pAW31 and YT2/pAW31 strains were cultured side-by-side for comparison. A single colony of the freshly transformed strains was used to inoculate a 5 mL LB culture supplemented with 35 mg/L kanamycin and grown overnight at 37° C. The next morning, 100 μL of the overnight culture was inoculated into 50 mL cultures containing LB broth, F1 minimal medium and F1 medium supplemented with 0.15 mg/L biotin. Growth rates were monitored by periodically measuring the OD600 reading. When OD600 reached ˜0.5, 100 μM IPTG was added to the culture and expression of LovD was performed at 20° C. for 16 hours. To mimic high density fermentation conditions, the cells were concentrated 10-fold before addition of substrates. Typically, a 14 mL aliquot of the culture was transferred to a 15 mL centrifuge tube and the cells were collected by centrifugation (4° C., 4000 g, 10 minutes). The cell pellet was gently resuspended in 1316 μl of the supernatant, followed by addition of 84 μl of a MJ acid stock solution (250 mM in H2O) (final concentration 15 mM). The concentrated culture was then separated into seven 200 μL samples and 1.2 μL of pure DMB-S-MMP was added to each sample (final concentration ˜25 mM). The culture was then shaken at 300 rpm at room temperature. At each time point, a total extraction was performed by adding 10 μL 20% SDS to lyse the cells, followed by liquid-liquid extraction with 500 μL EA/1% AcOH. The organic phase was removed, evaporated, and redissolved in 50 μL ACN for HPLC analysis. For the BL21(DE3) sample, an additional 1.2 μL aliquot of DMB-S-MMP was added after 12 hours to replenish the hydrolyzed substrates.
The E. coli BL21(DE3)/pAW31 strain was grown in LB medium at 37° C. to an OD600 of 0.5, at which time 100 μM IPTG was added to the culture and expression was performed at RT for 16 hours. A 10 ml culture was transferred to a 15 mL centrifuge tube. The cells were collected by centrifugation (4000 g, 10 minutes). The cell pellet was resuspended in 957 μl of the supernatant. The pH was adjusted to pH 7.9 with 1.0 N NaOH, followed by addition of 33 μl 450 mM MJ (final concentration 15 mM) and 6 μl pure DMB-S-MMP (final concentration ˜25 mM). The culture was then shaken at 300 rpm at room temperature. At each time point, a 4 μL aliquot was removed from the reaction mixture, quenched in 300 μL ethyl acetate containing 1% TFA.

A further data set concerns YT2/pAW31. As to the kind of experiment: Whole cell biocatalysis with ΔbioH E. coli overexpressing LovD. It is filed as cell-based, Escherichia coli. The conditions noted are these: 15 mM MJ acid, 25 mM DMB-S-MMP, less than 12 hours. The procedure:
as §1, with “The culture was then shaken at 300 rpm at room temperature. At each time point, a total extraction was performed by adding 10 μL 20% SDS to lyse the cells, followed by liquid-liquid extraction with 500 μL EA/1% AcOH. The organic phase was removed, evaporated, and redissolved in 50 μL ACN for HPLC analysis. For the BL21(DE3) sample, an additional 1.2 μL aliquot of DMB-S-MMP was added after 12 hours to replenish the hydrolyzed substrates.” left out

A further data set deals with E. coli. As to the kind of experiment: Whole-cell based hydrolysis / stability of thioester in E. coli cultures. On the set-up: species or system Escherichia coli. The conditions noted are these: BL21(DE3)/pAW31 culture, 18° C., 24 hours. The procedure: The selected 57 mutants from the Keio collection together with BW25113, BL21(DE3) and BL21(DE3)/pAW31 were grown to saturation in a 96-well deep well plate in 1 mL LB media at 37° C. Neat DMB-S-MMP (5 μL) was added to each culture with a final concentration of 20 mM. […] The organic phase was dried, redissolved in 20 μL acetonitrile (CH3CN), and 1 μL was spotted on a TLC plate (silica gel 60 F254). The TLC plates were developed with 20% EA in hexane and visualized with iodine.
Analysis of the compounds were also performed with HPLC using an analytical C18 column (Alltech Apollo 5 u, 150 mm×4.6 mm); linear gradient: 60% CH3CN in water (0.1% trifluoroacetic acid [TFA]) to 95% CH3CN in water (0.1% TFA) over 5 min, 95% CH3CN in water (0.1% TFA) for 10 minutes, with a flow rate of 1 mL/min. HPLC retention times (tR) were as follows: MJ lactone form: 3.40 min; DMB-S-MPA: 3.82 min; DMB-S-MMP: 6.80 min; simvastatin lactone form: 8.45 min. Both MJ and simvastatin acids were lactonized before HPLC analysis.
The mutants, wild type […] and BL21(DE3) were grown to saturation in LB broth in a 96-well plate. […] The cultures were acidified, extracted with ethyl acetate, and the organic phases were analyzed by thin layer chromatography (TLC) using a mobile phase (20% ethyl acetate in hexane) that enabled separation of DMB-S-MMP and DMB-S-MPA (FIG. 14A). […]

The target in another data set is T1, LovD (Aspergillus terreus, UniProt Q9Y7D1).
T1 sequence (Q9Y7D1 1-413): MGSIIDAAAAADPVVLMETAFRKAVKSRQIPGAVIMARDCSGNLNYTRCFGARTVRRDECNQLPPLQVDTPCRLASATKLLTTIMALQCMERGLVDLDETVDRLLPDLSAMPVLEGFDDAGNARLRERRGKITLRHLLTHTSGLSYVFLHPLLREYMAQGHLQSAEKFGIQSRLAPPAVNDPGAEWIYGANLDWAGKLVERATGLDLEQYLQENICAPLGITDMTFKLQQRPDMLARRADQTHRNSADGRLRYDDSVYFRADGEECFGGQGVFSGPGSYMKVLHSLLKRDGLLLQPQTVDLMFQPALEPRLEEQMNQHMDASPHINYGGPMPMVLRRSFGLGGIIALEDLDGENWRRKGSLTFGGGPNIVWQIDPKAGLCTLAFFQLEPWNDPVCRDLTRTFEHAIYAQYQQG
To be noted: label = product formed.

Substrate in data set [1]: CC[C@H](C)C(=O)O[C@H]1C[C@@H](C)C=C2C=C[C@H](C)[C@H](CC[C@@H]3C[C@@H](O)CC(=O)O3)[C@H]21
Nature of the data set: LovD catalyzed hydrolysis of lovastatin / simvastatin to monacolin J, HPLC. The conditions noted are these: other: statin as the only substrate; pH 7.9; 25.0 °C. It is filed as biochemical, Aspergillus terreus. As for the experimental part: FIG. 5. […] (B) Conversion as a function of time for (⋄) butyryl-CoA (♦) butyryl-SNAC, (▪) butyryl-SMTG. The apparent kcat values reported throughout the text are initial turnover rates in the linear range. (C) Michaelis-Menten plot of LovD catalyzed hydrolysis of lovastatin to monacolin J. The reaction progress is monitored by HPLC. kcat: 0.21±0.01 min^−1; Km: 0.56±0.05 mM.
As shown in FIG. 5A (trace a), 87% conversion of monacolin J to 4 was observed after 10 hours using butyryl-CoA as an acyl donor. […] The observed 87% conversion is likely approaching equilibrium as evident in FIG. 5B. To examine the biochemical nature of the equilibrium conversion, we assayed whether LovD also catalyzes the reverse, hydrolysis reaction.

Substrate in data set [2]: CCC(C)(C)C(=O)SCCC(=O)OC
As to the kind of experiment: LovD transacylation assay: acyl transfer from acyl thioester to C8 hydroxyl of monacolin J, HPLC. It is filed as biochemical, Aspergillus terreus. To be noted: other: monacolin J fixed at 2 mM; DMB-S-MMP 0.2-10 mM, 5% DMSO; pH 7.9. As for the experimental part:
We first examined if an acyl-CoA can be used as substrate for the transacylation reaction. The uninterrupted gene of LovD was amplified from A. terreus genomic DNA using splice by overlap extension PCR and was inserted into the pET28a expression vector. Overexpression of soluble, N-terminal 6×His fusion LovD was performed in E. coli strain BL21(DE3)/pAW31. LovD was purified using Nickel-NTA affinity column to homogeneity (final yield˜40 mg/L). The substrate monacolin J (1 mM) was prepared through the LiOH hydrolysis of lovastatin and was added to a reaction mixture containing pure LovD (10 μM) and butyryl-CoA (4 mM), which is a commercially available acyl-CoA that best mimics the natural α-methylbutyrate side chain. The reaction mixture was incubated at room temperature, extracted with ethyl acetate and analyzed by HPLC and LC-MS (FIG. 5).
We assayed the tolerance of LovD towards different acyl substituents by performing the transacylation assay with various commercially available acyl-CoAs (Table 1A). […]
Expression and purification of LovD has been previously described in detail (see, e.g., Xie et al., 2006, Chem Biol 13: 1161-1169). […] The initial velocities (ki) of the acyl substrates were determined with 10 μM LovD, 1 mM monacolin J and 4 mM of the thioester. […] The percent conversion of monacolin J to simvastatin was determined by HPLC analysis (C18). […]

Several values for one entry are separate records, joined by “and”; a condition that tells them apart may be missing. Identical values can stand only once. Some results are limits rather than exact numbers.

Consider `CCC(C)(C)C(=O)SCCC(=O)OC` [DMB-S-MMP, α-dimethylbutyryl-S-methyl-mercaptopropionate], for which the “conversion of monacolin J to simvastatin, whole cell” value in the data set on E. coli BL21(DE3)/pAW31 (15 mM monacolin J, 25 mM DMB-S-MMP, cells concentrated 10×, room temperature, 24 hours) is 99% and > 99%. For the same molecule, the “conversion of MJ acid to simvastatin acid, whole cell” value in the data set with YT2/pAW31 is reported as > 99%.

Take `COC(=O)CSC(=O)c1ccccc1` [benzoyl-SMTG]: the “conversion of monacolin J (benzoylation) in vivo” value with E. coli BL21(DE3)/pAW31 (0.8 mM monacolin J, 4 mM acyl donor, 18° C., within 20 hours post-induction) is reported as 40%. In addition, the “stability of acyl donor in E. coli culture” value in the data set on E. coli was “rapidly degraded”.

`CCC(C)(C)C(=O)OC1CC(O)C=C2C=CC(C)C(CCC(O)CC(O)CC(=O)O)C21` (centres unmarked) [huvastatin]: the “apparent turnover rate for synthesis from tetra-ol 7 using the corresponding acyl-thioester” value at LovD came to 0.03 min⁻¹.

B1: LovD (Aspergillus terreus) (protein)
chain: MGSIIDAAAAADPVVLMETAFRKAVKSRQIPGAVIMARDCSGNLNYTRCFGARTVRRDECNQLPPLQVDTPCRLASATKLLTTIMALQCMERGLVDLDETVDRLLPDLSAMPVLEGFDDAGNARLRERRGKITLRHLLTHTSGLSYVFLHPLLREYMAQGHLQSAEKFGIQSRLAPPAVNDPGAEWIYGANLDWAGKLVERATGLDLEQYLQENICAPLGITDMTFKLQQRPDMLARRADQTHRNSADGRLRYDDSVYFRADGEECFGGQGVFSGPGSYMKVLHSLLKRDGLLLQPQTVDLMFQPALEPRLEEQMNQHMDASPHINYGGPMPMVLRRSFGLGGIIALEDLDGENWRRKGSLTFGGGPNIVWQIDPKAGLCTLAFFQLEPWNDPVCRDLTRTFEHAIYAQYQQG
notes: 6xHis (N); made in house; host or cells: E. coli BL21(DE3)/pAW31 (pET28a)
Regarding B1, in data set [1], the Michaelis constant (Km) was 560 ± 50 µM and the turnover number (kcat) turned out to be 0.0035 ± 0.00017 s⁻¹. Moreover, the Michaelis-Menten constant (Km) in data set [2] was found to be 670 ± 40 µM.
